Experimental data taken from patent US10905738B2, “Synthetic peptides, prodrugs, pharmaceutical compositions and uses” (Biozeus Desenvolvimento De Produtos Biofarmacêuticos, priority 2018, dated 2021).
Where a SMILES comes first, the peptide text is derived from it.

Assays:
[1] = system: smooth muscle of tracheal rings; test: spasmodic contraction of tracheal rings ex vivo (histamine-induced); design: species or system Dunkin-Hartley guinea pigs; settings: for Effectiveness (Emax) (%): relaxation of tracheal rings contracted by histamine (50 μM); for Effectiveness (Emax) (%) / Potency (pEC50) Molar: mean±SEM; for Potency (pEC50) Molar: tracheal rings contracted by histamine (50 μM), peptides 0.01 to 10 μM
Description: The magnitude of the relaxing effect of the peptides was evaluated by means of a model of spasmodic contraction of tracheal rings ex vivo, largely employed to test new bronchodilating agents (see CULLUM, V. A., FARMER, J. B., JACK, D., LEVY, G. P. Salbutamol: a new, selective β-adrenoceptive receptor stimulant. British journal of pharmacology, 35(1): 141-151. 1969; KAO, C. H., CHU, Y. H., WANG, H. W. Effects of lidocaine on rat's isolated tracheal smooth muscle. European Archives of Oto-Rhino-Laryngology, 267(5): 817-820. 2010; SORIANO-URSÚA, M. A., VALENCIA-HERNÁNDEZ, I., ARELLANO-MENDOZA, M. G., CORREA-BASURTO, J., TRUJILLO-FERRARA, J. G. Synthesis, pharmacological and in silico evaluation of 1-(4-dihydroxy-3, 5-dioxa-4-borabycyclo [4.4.0] deca-7,9,11-trien-9-yl)-2-(tert-butylamine) ethanol, a compound designed to act as a β2 adrenoceptor agonist. European journal of medicinal chemistry, 44(7): 2840-2846. 2009).
For each test, Dunkin-Hartley guinea pigs (400-500 g) were euthanized in a CO2 atmosphere; subsequently, the trachea was exposed, removed and sectioned in segments of 1 to 3 cartilaginous tracheal rings. Each segment was transferred to an individual organ bath system containing Krebs nutritive solution (NaCl 118 mM; KCl […]; CaCl2) 2.5 mM; MgSO4 1.2 mM; KH2PO4 1.2 mM; NaHCO324 mM; glucose 11 mM) at 37° C., under constant aeration with a carbogenic mixture (95% of O2 and 5% of CO2). In each system, a stem fixed to the base of the container and another connected to an isometric transducer (GRASS FT-03) made up the support of the fragments. A data digitizing system connected to the isometric transducer allowed the recording of tension variations produced by the contraction of the tracheal rings (PowerLab™ 16/30, LabChart, version 8.1, AD Instruments, Australia). The basal tension was adjusted to 1 g, and subsequently, the contractility of the fragments was evaluated by a stimulus with carbachol (2.5 μM). After 1 h at rest, the basal tension was recovered and the tissues were subjected to contraction induced by histamine (50 μM) followed by exposure to increasing concentrations of the treatments (0.01 to 10 μM; n=8) or the comparator PnTx(19).
Table 1 lists the mean±SEM of the potency values, shown as the negative logarithm of the concentration that reduced the voltage to 50% of the maximum Histamine-induced contraction (pEC50), and efficacy (Emax), calculated from at least 8 independent tests using the sigmoid nonlinear regression equation of the software Graph Prism 5.0 (GraphPad Software, La Jolla, Ca, USA).

[2] = system: monocrotaline-induced model of pulmonary arterial hypertension (PAH); test: hemodynamic parameters and heart remodeling in monocrotaline-induced model of PAH; type: in vivo, male Wistar Rats; settings: 0.06 mg/kg intranasal twice daily for 14 days
Excerpt: The monocrotaline (MCT) model is the most widely used animal model of PAH, being the oldest in existence and best described among the available models. This model offers the advantage of mimicking several key aspects of human PAH, including vascular remodeling, proliferation of smooth muscle cells, endothelial dysfunction, up-regulation of inflammatory cytokines, and right ventricle failure, after a single intraperitoneal or subcutaneous MCT injection (GOMEZ-ARROYO, J. G., FARKAS, L., ALHUSSAINI, A. A., FARKAS, D., KRASKAUSKAS, D., VOELKEL, N. F., BOGAARD, H. J. The Monocrotaline Model of Pulmonary Hypertension in Perspective. Am J Physiol Lund Cell Mol Physiol, 302(4): L363-9. 2012).
The currently preferred species for the study of MCT-induced PAH is the rat, with clinical signs of the illness manifesting in 3-7 days after the MCT injection in the form of anorexia, listlessness, failure to gain weight, and tachypnea. As the lung injury and vascular remodeling progress, the animals develop variable degrees of dyspnea, weakness, diarrhea and peripheral cyanosis (SCHOENTAL R., HEAD, M. A. Pathological changes in rats as a result of treatment with monocrotaline. Br J Cancer, 9(1):229-37. 1955). One week after the MCT injection, endothelial damage, inflammatory infiltration, and edema can be observed, but no increase in pulmonary arterial pressure (PAP). After two weeks, PAP is increased leading to right ventricle (RV) hypertrophy by the third week after drug administration (WEST, J., HEMMES, A. Experimental and transgenic models of pulmonary hypertension. Compr Physiol, 1(2):769-82. 2011).
To assess the potential benefit of SEQ ID NO: 19 in the treatment of PAH, we used adult healthy male Wistar Rats, which were then randomized into two groups: monocrotaline-induced PAH (MCT, n=14), in which animals received 60 mg/kg of MCT intraperitoneally (C2401, Sigma Chemical Co., St Louis, Mo., USA, Batch Number: WXBC4737V) and 2) control (CTRL, n=7), in which animals received a similar volume of saline solution intraperitoneally. This would be day 0 of the study. On the same day, prior to being randomized, the animals were subjected to echocardiographic analysis to establish a baseline. On day 14, another echocardiography was done, and PAH animals were further randomized to receive intranasal saline (SAL) or SEQ ID NO: 19 (0.06 mg/kg), twice daily for 14 days. On day 28, echocardiographies were repeated, RV exit area, left ventricle (LV) area, and PAT/PET (pulmonary arterial acceleration time (PAT)/pulmonary arterial ejection time (PET) ratio). In the PAH disease, the increase of PAP leads to an increase in RV area due to the increased pressure, and a decrease in the LV area, due to a reduction in blood flow to the left ventricle. […] Hemodynamic parameters were measured by invasive RV catheterization, including the systolic pressure of RV (RVSP) and the dP/dt ratio (a derivative of pressure/derivative of maximum time), which is correlated to the pressure in the RV.
The experiments were analyzed with two-way ANOVA, followed by Bonferroni's post-test to determine statistical significance. […]

[3] = RV catheterization, vs MCT+Vehicle
[4] = echocardiography, vs MCT+vehicle

| Compound | relaxing effect on airway (tracheal ring) smooth muscle, in words ([1]; histamine-induced contraction ex vivo) | Effectiveness (Emax) (%) [1] [%] | Potency (pEC50) Molar [1] [Molar] | dP/dt Max ratio [2, 3] | systolic pressure of RV (RVSP) [2, 3] | LV area [2, 4] | PAT/PET ratio [2, 4] | RV exit area [2, 4] |
| --- | --- | --- | --- | --- | --- | --- | --- | --- |
| CC[C@H](C)[C@H](NC(C)=O)C(=O)N[C@@H](C)C(=O)N[C@@H](Cc1c[nH]c2ccccc12)C(=O)N[C@@H](Cc1ccc(O)cc1)C(=O)N[C@@H](CCCCN)C(N)=O [SEQ ID NO: 24, Ac-Ile-Ala-Trp-Tyr-Lys-NH2] (Ac-IAWYK-NH2) | effective | 29.0 ± 1.0 | 7.9 ± 0.3 | – | – | – | – | – |
| CC[C@H](C)[C@H](NC(=O)[C@H](Cc1c[nH]c2ccccc12)NC(=O)[C@H](Cc1ccccc1)NC(C)=O)C(=O)N[C@@H](C)C(=O)N[C@@H](Cc1c[nH]c2ccccc12)C(=O)N[C@@H](Cc1ccc(O)cc1)C(=O)N[C@@H](CCCCN)C(=O)N[C@@H](CC(C)C)C(=O)N[C@@H](C)C(N)=O [SEQ ID NO: 19, Ac-Phe-Trp-Ile-Ala-Trp-Tyr-Lys-Leu-Ala-NH2] (Ac-FWIAWYKLA-NH2) | – | 40.0 ± 3.4 | 7.3 ± 0.4 | decrease | decrease in RVSP | increase in LV area | increases the PAT/PET ratio to values similar to the non-treated group (control) | decrease in RV exit area |
